Laboratory results as given in patent US12297194B2, “N2-phenylpyrimidine-2,4-diamine compounds, and preparation methods and methods of use thereof” (BRIDGE BIOTHERAPEUTICS, INC., priority 2021, dated 2025).

Columns and labels:
Format in all cases: cell-based, murine
[1] = molecular target: Ba/F3 EGFR Del19/T790M/C797S mutants (Homo sapiens, UniProt P00533, T790M/C797S, cells depend on it, form not given); test: CellTiter-Glo cell viability, Ba/F3 EGFR Del19/T790M/C797S cells; details: 72 hours, read-out: Ba/F3 EGFR mutant cell (IC50, nM) D/T/C
Summary of the method: (§1)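 Steps: seed 2500 Ba/F3 cells per well; after 24 h add compound, 0, 0.3, 0.9, 2.7, 8.2, 24.7, 74.1, 222.2, 666.7, 2000 nM; incubate 72 h; equilibrate 30 min at ambient temperature; add CellTiter-Glo, shake 10 min; read luminescence; derive IC50.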

[2] = molecular target: Ba/F3 EGFR Del19/C797S mutants (Homo sapiens, UniProt P00533, C797S, cells depend on it, form not given); test: CellTiter-Glo cell viability, Ba/F3 EGFR Del19/C797S cells; details: 72 hours, read-out: Ba/F3 EGFR mutant cell (IC50, nM) D/C
Summary of the method: as §1

[3] = molecular target: Ba/F3 EGFR L858R/C797S mutants (Homo sapiens, UniProt P00533, C797S/L858R, cells depend on it); test: CellTiter-Glo cell viability, Ba/F3 EGFR L858R/C797S cells; details: 72 hours, read-out: Ba/F3 EGFR mutant cell (IC50, nM) L/C
Sequence of Ba/F3 EGFR L858R/C797S mutants (P00533 whole entry C797S/L858R): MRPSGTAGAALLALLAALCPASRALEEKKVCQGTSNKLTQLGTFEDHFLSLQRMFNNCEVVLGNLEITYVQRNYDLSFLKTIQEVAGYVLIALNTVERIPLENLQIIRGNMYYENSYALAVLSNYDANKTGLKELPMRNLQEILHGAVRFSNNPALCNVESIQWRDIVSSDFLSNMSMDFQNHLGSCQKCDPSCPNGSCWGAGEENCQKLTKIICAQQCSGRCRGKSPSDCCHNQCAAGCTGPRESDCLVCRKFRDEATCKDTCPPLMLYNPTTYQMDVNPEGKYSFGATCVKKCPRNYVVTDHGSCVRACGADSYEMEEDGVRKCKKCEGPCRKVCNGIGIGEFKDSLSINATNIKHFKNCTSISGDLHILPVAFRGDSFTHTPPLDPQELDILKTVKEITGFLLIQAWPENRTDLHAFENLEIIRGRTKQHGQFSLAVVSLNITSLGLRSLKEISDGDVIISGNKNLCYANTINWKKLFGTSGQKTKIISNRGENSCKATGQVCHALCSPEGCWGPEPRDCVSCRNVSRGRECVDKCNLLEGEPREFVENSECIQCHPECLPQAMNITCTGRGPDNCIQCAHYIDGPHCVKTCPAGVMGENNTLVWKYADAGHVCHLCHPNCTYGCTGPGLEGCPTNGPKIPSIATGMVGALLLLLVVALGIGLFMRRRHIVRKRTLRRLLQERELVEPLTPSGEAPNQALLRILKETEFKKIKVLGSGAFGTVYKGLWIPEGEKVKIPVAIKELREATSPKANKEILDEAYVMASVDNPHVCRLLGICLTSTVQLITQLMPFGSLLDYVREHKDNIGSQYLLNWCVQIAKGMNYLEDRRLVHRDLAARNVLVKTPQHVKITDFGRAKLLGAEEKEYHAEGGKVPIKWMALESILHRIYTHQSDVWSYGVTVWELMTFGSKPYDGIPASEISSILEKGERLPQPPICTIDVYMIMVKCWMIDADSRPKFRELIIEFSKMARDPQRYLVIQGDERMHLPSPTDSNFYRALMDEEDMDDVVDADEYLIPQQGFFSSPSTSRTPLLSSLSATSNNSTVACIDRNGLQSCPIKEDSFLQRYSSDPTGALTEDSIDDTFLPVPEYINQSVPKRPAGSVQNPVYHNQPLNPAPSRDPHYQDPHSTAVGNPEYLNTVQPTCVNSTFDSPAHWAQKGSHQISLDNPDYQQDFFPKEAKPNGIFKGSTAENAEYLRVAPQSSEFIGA
Summary of the method: as §1

Ba/F3 EGFR Wild-type = Ba/F3 EGFR Wild-type (Homo sapiens, UniProt P00533); test: CellTiter-Glo cell viability, Ba/F3 EGFR wild-type cells; details: 72 hours, read-out: Ba/F3 EGFR mutant cell (IC50, nM) WT
Sequence of Ba/F3 EGFR Wild-type (P00533 whole entry, change not shown): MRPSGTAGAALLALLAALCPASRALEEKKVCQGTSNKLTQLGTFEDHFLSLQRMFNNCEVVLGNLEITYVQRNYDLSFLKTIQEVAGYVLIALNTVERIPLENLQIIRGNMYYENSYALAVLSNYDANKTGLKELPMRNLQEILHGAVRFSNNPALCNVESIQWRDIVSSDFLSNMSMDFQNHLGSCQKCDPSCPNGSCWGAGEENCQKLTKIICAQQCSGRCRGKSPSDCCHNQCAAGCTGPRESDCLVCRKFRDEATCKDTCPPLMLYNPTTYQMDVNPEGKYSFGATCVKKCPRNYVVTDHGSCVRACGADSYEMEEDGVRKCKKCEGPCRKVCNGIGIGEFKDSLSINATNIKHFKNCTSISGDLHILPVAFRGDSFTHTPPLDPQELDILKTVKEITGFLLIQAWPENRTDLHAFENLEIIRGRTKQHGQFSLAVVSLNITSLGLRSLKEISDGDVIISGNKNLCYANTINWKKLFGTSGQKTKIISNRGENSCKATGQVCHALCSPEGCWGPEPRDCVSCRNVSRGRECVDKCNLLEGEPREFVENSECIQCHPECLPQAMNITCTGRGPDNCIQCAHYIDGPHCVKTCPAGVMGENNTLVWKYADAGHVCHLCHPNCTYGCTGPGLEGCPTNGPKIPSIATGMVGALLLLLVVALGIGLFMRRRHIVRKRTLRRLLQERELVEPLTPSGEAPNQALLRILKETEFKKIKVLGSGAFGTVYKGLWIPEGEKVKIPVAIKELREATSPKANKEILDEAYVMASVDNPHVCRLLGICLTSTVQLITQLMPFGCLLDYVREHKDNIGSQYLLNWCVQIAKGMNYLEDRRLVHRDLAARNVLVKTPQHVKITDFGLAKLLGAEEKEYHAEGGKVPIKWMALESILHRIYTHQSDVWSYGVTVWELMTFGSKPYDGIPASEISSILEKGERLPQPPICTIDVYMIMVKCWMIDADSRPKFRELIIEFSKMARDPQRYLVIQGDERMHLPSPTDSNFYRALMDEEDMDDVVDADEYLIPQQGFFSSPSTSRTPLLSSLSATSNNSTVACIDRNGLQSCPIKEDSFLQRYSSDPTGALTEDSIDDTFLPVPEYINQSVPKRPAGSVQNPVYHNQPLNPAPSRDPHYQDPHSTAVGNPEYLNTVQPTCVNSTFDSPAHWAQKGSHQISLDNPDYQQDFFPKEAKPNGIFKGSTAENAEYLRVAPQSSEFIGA
Summary of the method: as §1

[4] = molecular target: Ba/F3 EGFR L858R/T790M/C797S mutants (Homo sapiens, UniProt P00533, T790M/C797S/L858R, cells depend on it); test: CellTiter-Glo cell viability, Ba/F3 EGFR L858R/T790M/C797S cells; details: 72 hours, read-out: Ba/F3 EGFR mutant cell (IC50, nM) L/T/C
Sequence of Ba/F3 EGFR L858R/T790M/C797S mutants (P00533 whole entry T790M/C797S/L858R): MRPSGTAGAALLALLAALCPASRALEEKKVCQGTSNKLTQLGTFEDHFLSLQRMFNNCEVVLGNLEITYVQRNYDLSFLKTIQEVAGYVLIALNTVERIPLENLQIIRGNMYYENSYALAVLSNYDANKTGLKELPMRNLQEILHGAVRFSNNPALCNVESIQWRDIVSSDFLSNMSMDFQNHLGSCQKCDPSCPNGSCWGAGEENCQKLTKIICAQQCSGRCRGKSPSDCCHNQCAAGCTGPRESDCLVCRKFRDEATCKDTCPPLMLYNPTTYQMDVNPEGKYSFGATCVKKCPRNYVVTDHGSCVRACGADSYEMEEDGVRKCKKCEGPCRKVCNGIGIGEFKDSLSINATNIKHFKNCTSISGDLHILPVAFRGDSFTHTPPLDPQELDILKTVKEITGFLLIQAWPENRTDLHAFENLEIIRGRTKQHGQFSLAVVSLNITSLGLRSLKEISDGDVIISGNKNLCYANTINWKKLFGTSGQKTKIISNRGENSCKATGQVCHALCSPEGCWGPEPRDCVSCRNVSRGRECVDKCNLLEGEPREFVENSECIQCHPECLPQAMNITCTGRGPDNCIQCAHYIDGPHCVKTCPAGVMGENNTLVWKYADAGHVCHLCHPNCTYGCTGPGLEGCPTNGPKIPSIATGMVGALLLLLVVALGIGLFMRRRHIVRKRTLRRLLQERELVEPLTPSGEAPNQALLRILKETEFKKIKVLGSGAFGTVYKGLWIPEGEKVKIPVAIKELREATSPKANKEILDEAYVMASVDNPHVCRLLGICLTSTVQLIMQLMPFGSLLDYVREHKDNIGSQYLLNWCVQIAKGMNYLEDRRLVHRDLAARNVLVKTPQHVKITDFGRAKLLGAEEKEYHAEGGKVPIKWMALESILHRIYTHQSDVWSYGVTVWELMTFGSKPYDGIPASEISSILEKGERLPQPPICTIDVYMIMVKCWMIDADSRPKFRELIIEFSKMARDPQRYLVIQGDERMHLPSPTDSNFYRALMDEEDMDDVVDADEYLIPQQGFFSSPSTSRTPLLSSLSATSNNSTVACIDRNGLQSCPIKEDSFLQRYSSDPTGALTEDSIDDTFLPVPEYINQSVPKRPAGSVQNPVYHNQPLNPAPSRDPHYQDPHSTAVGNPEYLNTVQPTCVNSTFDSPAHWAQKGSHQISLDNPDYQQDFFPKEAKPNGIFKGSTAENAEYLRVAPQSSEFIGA
Summary of the method: as §1

[5] = molecular target: Ba/F3 EGFR Del19/T790M mutants (Homo sapiens, UniProt P00533, T790M, cells depend on it, form not given); test: CellTiter-Glo cell viability, Ba/F3 EGFR Del19/T790M cells; details: 72 hours, read-out: Ba/F3 EGFR mutant cell (IC50, nM) D/T
Sequence of Ba/F3 EGFR Del19/T790M mutants (P00533 with tags, fused parts or gaps DEL746-750/T790M, form open): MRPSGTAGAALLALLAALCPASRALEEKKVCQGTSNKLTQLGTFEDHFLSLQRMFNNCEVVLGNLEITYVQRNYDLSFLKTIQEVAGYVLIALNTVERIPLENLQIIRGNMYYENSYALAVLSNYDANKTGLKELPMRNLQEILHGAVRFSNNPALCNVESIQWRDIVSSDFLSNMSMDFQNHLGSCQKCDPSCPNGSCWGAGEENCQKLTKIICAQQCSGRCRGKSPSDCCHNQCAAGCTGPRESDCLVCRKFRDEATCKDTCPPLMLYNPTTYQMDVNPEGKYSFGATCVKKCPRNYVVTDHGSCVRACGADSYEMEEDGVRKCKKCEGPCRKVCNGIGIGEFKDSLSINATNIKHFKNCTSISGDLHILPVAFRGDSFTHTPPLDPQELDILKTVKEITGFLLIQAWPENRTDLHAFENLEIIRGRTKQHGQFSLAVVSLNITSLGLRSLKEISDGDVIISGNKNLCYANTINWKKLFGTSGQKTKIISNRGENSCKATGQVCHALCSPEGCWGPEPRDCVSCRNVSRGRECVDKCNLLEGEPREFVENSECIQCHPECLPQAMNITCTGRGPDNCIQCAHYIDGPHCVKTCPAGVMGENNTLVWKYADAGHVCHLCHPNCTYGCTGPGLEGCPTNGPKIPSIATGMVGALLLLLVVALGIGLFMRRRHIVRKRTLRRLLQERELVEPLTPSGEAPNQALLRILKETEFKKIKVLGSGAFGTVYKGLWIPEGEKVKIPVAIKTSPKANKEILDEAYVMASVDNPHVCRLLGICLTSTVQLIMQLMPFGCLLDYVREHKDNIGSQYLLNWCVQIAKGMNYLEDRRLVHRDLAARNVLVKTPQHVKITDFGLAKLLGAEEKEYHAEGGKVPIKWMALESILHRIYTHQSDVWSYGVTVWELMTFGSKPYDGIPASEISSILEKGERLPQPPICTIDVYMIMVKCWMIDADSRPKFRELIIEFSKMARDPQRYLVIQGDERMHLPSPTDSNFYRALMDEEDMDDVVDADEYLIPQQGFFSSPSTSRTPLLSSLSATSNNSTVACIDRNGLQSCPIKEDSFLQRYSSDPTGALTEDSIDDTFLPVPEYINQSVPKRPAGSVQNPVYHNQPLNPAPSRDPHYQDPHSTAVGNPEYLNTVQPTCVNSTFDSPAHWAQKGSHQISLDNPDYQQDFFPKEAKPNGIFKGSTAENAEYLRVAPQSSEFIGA
Summary of the method: as §1

Row | Structure (SMILES) | GI50 [1] [nM] | GI50 [2] [nM] | GI50 [3] [nM] | GI50 (Ba/F3 EGFR Wild-type) [nM] | GI50 [4] [nM] | GI50 [5] [nM]
1 | CCCc1cc(Nc2ncc(Cl)c(Nc3ccc4nccnc4c3N(C)S(C)(=O)=O)n2)c(OC)cc1N1CCC(N2CCCC2)CC1 [Example A42, N-(6-((5-chloro-2-((2-methoxy-5-propyl-4-(4-(pyrrolidin-1-yl)piperidin-1-yl)phenyl)amino)pyrimidin-4-yl)amino)quinoxalin-5-yl)-N-methylmethanesulfonamide] | 7 | 2 | 80 | 1860 | 117 | 33
2 | CCc1cc(Nc2ncc(Cl)c(Nc3ccc4nccnc4c3NS(C)(=O)=O)n2)c(OC)cc1N1CCC(N2CCOCC2)CC1 [Example A29, N-(6-((5-chloro-2-((5-ethyl-2-methoxy-4-(4-morpholinopiperidin-1-yl)phenyl)amino)pyrimidin-4-yl)amino)quinoxalin-5-yl)methanesulfonamide] | 69 | 27 | 79 | 200 | 25 | 13
3 | COc1cc(C2CCNCC2)ccc1Nc1ncc(Cl)c(Nc2ccc3nccnc3c2NS(C)(=O)=O)n1 [Example B15, N-(6-((5-chloro-2-((2-methoxy-4-(piperidin-4-yl)phenyl)amino)pyrimidin-4-yl)amino)quinoxalin-5-yl)methanesulfonamide] | 746 | 581 | 1540 | > 2000 | 2140 | 1310
4 | CCCc1cc(Nc2ncc(Cl)c(Nc3ccc4c(c3NS(C)(=O)=O)OCCO4)n2)c(OC)cc1N1CCC(N(C)C)CC1 [Example C13, N-(6-((5-chloro-2-((4-(4-(dimethylamino)piperidin-1-yl)-2-methoxy-5-propylphenyl)amino)pyrimidin-4-yl)amino)-2,3-dihydrobenzo[b][1,4]dioxin-5-yl)methanesulfonamide] | 27 | 23 | 61 | 769 | 52 | 20
5 | COc1cc(N2CCC(N3CCN(C)CC3)CC2)c(F)cc1Nc1ncc(Br)c(Nc2ccc3nccnc3c2NS(C)(=O)=O)n1 [Example A27, N-(6-((5-bromo-2-((5-fluoro-2-methoxy-4-(4-(4-methylpiperazin-1-yl)piperidin-1-yl)phenyl)amino)pyrimidin-4-yl)amino)quinoxalin-5-yl)methanesulfonamide] | 192 | 101 | 184 | 183 | 65 | 27
6 | COc1cc(N2CCC(N3CCCC3)CC2)c(C)cc1Nc1ncc(Br)c(Nc2cccc(OC)c2NS(C)(=O)=O)n1 [Example C25, N-(2-((5-bromo-2-((2-methoxy-5-methyl-4-(4-(pyrrolidin-1-yl)piperidin-1-yl)phenyl)amino)pyrimidin-4-yl)amino)-6-methoxyphenyl)methanesulfonamide] | 6 | 18 | 55 | 707 | 44 | 6
7 | COc1cc(N2CCC(N(C)C)CC2)c(C)cc1Nc1ncc(Br)c(Nc2ccc3nccnc3c2N(C)S(C)(=O)=O)n1 [Example B7, N-(6-((5-bromo-2-((4-(4-(dimethylamino)piperidin-1-yl)-2-methoxy-5-methylphenyl)amino)pyrimidin-4-yl)amino)quinoxalin-5-yl)-N-methylmethanesulfonamide] | 8 | 34 | 98 | 595 | 33 | 21
8 | CCc1cc(Nc2ncc(Br)c(Nc3ccc4nccnc4c3N(C)S(C)(=O)=O)n2)c(OC)cc1N1CCC(N(C)C)CC1 [Example B14, N-(6-((5-bromo-2-((4-(4-(dimethylamino)piperidin-1-yl)-5-ethyl-2-methoxyphenyl)amino)pyrimidin-4-yl)amino)quinoxalin-5-yl)-N-methylmethanesulfonamide] | 8 | 6 | 41 | 427 | 23 | 3
9 | COc1cc(C2CCNCC2)ccc1Nc1ncc(Cl)c(Nc2ccc3nccnc3c2NC(C)=O)n1 [Example D3, N-(6-((5-chloro-2-((2-methoxy-4-(piperidin-4-yl)phenyl)amino)pyrimidin-4-yl)amino)quinoxalin-5-yl)acetamide] | 717 | 378 | 1030 | > 2000 | 1180 | 678
10 | COc1cc(N2CCNCC2)ccc1Nc1ncc(Cl)c(Nc2ccc3nccnc3c2NS(C)(=O)=O)n1 [Example B16, N-(6-((5-chloro-2-((2-methoxy-4-(piperazin-1-yl)phenyl)amino)pyrimidin-4-yl)amino)quinoxalin-5-yl)methanesulfonamide] | 741 | 361 | 778 | 1890 | 823 | 402
11 | COc1cc(C2CCNCC2)c(F)cc1Nc1ncc(Cl)c(Nc2ccc3nccnc3c2NS(C)(=O)=O)n1 [Example B21, N-(6-((5-chloro-2-((5-fluoro-2-methoxy-4-(piperidin-4-yl)phenyl)amino)pyrimidin-4-yl)amino)quinoxalin-5-yl)methanesulfonamide] | 448 | 342 | 500 | 1730 | 693 | 469
12 | COc1cc(C2CCNCC2)ccc1Nc1ncc(C2CC2)c(Nc2ccc3nccnc3c2NS(C)(=O)=O)n1 [Example B20, N-(6-((5-cyclopropyl-2-((2-methoxy-4-(piperidin-4-yl)phenyl)amino)pyrimidin-4-yl)amino)quinoxalin-5-yl)methanesulfonamide] | 758 | 697 | 1140 | > 2000 | 1850 | 1810
13 | COc1cc(N2CCN([C@@H]3CCN(C)C[C@@H]3F)CC2)ccc1Nc1ncc(Cl)c(Nc2ccc3nccnc3c2NS(C)(=O)=O)n1 [Example A36, N-(6-((5-chloro-2-((4-(4-((3S,4R)-3-fluoro-1-methylpiperidin-4-yl)piperazin-1-yl)-2-methoxyphenyl)amino)pyrimidin-4-yl)amino)quinoxalin-5-yl)methane sulfonamide] | 241 | 111 | 267 | 657 | 485 | 73
14 | COC(=O)Nc1c(Nc2nc(Nc3ccc(C4CCNCC4)cc3OC)ncc2Cl)ccc2nccnc12 [Example D4, methyl (6-((5-chloro-2-((2-methoxy-4-(piperidin-4-yl)phenyl)amino)pyrimidin-4-yl)amino)quinoxalin-5-yl)carbamate] | 870 | 746 | 1570 | > 2000 | > 2000 | 694
15 | COc1cc(N2CCC(N(C)C)CC2)c(C)cc1Nc1ncc(Br)c(Nc2cccc(OC)c2NS(C)(=O)=O)n1 [Example C3, N-(2-((5-bromo-2-((4-(4-(dimethylamino)piperidin-1-yl)-2-methoxy-5-methylphenyl)amino)pyrimidin-4-yl)amino)-6-methoxyphenyl)methanesulfonamide] | 92 | 60 | 113 | 288 | 23 | 17
